Measured values taken from patent US9724262B2, “Methods of diagnosing and treating neonatal reversion to fetal consciousness” (The Regents of the University of California, priority 2013, dated 2017).

Columns and labels:
[1] = Plasma steroid and hormone concentrations (LC-MS) in the foal infused with allopregnanolone; type: in vivo, Quarter Horse
Description: (§1) Intravenous catheters were placed aseptically in the right jugular vein for sample collection and in the left jugular vein for infusion of allopregnanolone. Allopregnanolone (5 alpha-pregnan-3 alpha-ol-20-one; Steraloids Inc., Newport, R.I., USA) was dissolved in an ethanol-based solution to a total concentration of 9 mg/ml. Infused dose and concentration of allopregnanolone in this foal were determined based on concentrations reported in in vivo studies in the modulation of the HPA axis in male rats (Naert, et al., (2007) Psychoneuroendocrinology 32, 1062-1078). An initial bolus of 0.05 mg/kg bwt i.v. of allopregnanolone was given followed by a constant rate infusion (CRI) of 0.02 mg/kg bwt/min using an infusion pump. Based on clinical effects of the initial dosage, a second bolus of 0.1 mg/kg bwt i.v. was given after 5 min and followed by a CRI of 0.04 mg/kg bwt/min for 5 min. The infusion was discontinued for 30 min to allow observation of any neurobehavioural (NB) alterations, and then a final bolus of 0.2 mg/kg bwt i.v. was given.
Heparinised blood samples were collected at birth, age 6 h and at 15 min intervals during the infusion. Blood was immediately centrifuged following collection and plasma stored at −80° C. until analysed by liquid chromatography mass spectrometry (LC-MS) utilising on-line sample extraction by turbulent flow chromatography (TFC) and detection by select reaction monitoring (SRM) on a triple quadrupole mass spectrometer. […] Free concentrations of 34 steroids were monitored in one analytical method over a 24-min run time. Detection and quantitation was accomplished using 3 or more SRM transitions per compound for all compounds other than 17-hydroxy pregnenolone where single ion monitoring (SIM) was utilised. This method was validated and the following assessed for each analyte: linearity, limit of detection, limit of quantitation, accuracy, precision, matrix effects, extraction recovery and potential endogenous interferences. […]

healthy neonatal foal = experiment: Neurobehavioural (NB) scoring of a healthy neonatal foal infused i.v. with allopregnanolone; type: in vivo, Quarter Horse
Description: A healthy neonatal 50 kg Quarter Horse colt from the research herd at the School of Veterinary Medicine, University of California, Davis was selected for the infusion. The foal was born from a healthy Quarter Horse mare with a normal gestational length without complications, and normal observed parturition except that the placental passage was prolonged. Although retention of the placenta for 7 h post birth is not considered normal by most standards, the placenta was evaluated and determined to be complete and normal. […] The foal was deemed healthy based upon complete physical and neurological examinations immediately post birth. […] Repeat physical and neurological examinations at age 6 h, immediately prior to infusion, were also normal.
as §1
Neurobehavioural alterations were recorded and graded through a NB scoring system developed by the authors for the assessment of foals with NMS (Table 2). From preliminary work, foals with NMS had scores>8 from a range of 0 (normal foal) to 20 (comatose with paroxysmal activity). Mentation was defined as: normal if the foal was alert and responsive; quiet to obtunded if the foal was apparently lethargic but responsive to external stimuli (e.g., touch, sound); stuporous if level of consciousness was decreased but responsive to painful stimuli (e.g. pinching skin with haemostats); and comatose if the foal lost consciousness and was unresponsive to any stimuli. Paroxysmal activity was defined as abnormal events such as seizures or seizure-like activity, rhythmic limb movements, tremors or paddling. The NB scores were calculated at 5 min intervals throughout the infusion period. Following the infusion, the foal was observed hourly for the first 6 h and then at 12 h intervals for 2 days.
For NB comparison, a second age-matched clinically healthy neonatal Quarter Horse colt was infused with 99.9% ethanol diluted with 0.9% saline to a final concentration of 5% ethanol without allopregnanolone. Infusion of this solution followed the same protocol (dosage [based on 5% ethanol] and rate) of administration as for the first foal. The study was approved by an Animal Care and Use protocol from University of California, Davis.

[2] = age 6 ½ h, 15 minutes post initial infusion

Question: Which results are given for `CC(=O)[C@H]1CC[C@H]2[C@@H]3CC[C@H]4C[C@H](O)CC[C@]4(C)[C@H]3CC[C@]12C` [allopregnanolone, 5 alpha-pregnan-3 alpha-ol-20-one]?
Answer: Allopregnanolone plasma concentration ([1]; age 6 ¼ h, bolus 0.05 mg/kg IV, CRI 0.02 mg/kg/min): 478,909 pg/mL; Allopregnanolone plasma concentration [1, 2]: 126,566 pg/mL; Allopregnanolone plasma concentration ([1]; age 6 ¾ h, bolus 0.2 mg/kg IV): 466,208 pg/mL; Time after cessation of the infusion to signs of increased responsiveness (healthy neonatal foal; after cessation of the infusion): ≤ 8 min; Neurobehavior score (healthy neonatal foal; age 6 ¼ h, bolus 0.05 mg/kg IV, CRI 0.02 mg/kg/min, score scale 0-20): 14; Neurobehavior score (healthy neonatal foal; [2]): 8; Neurobehavior score (healthy neonatal foal; age 6 ¾ h, bolus 0.2 mg/kg IV): 15; NB score (healthy neonatal foal; by 15 min after cessation of the infusion or the final bolus, standing, mild obtundation): 9; NB score (healthy neonatal foal; by 30 min after infusion, foal appeared normal): 0; NB score (healthy neonatal foal; infusion of higher concentrations (0.1 and 0.2 mg/kg bwt), foal recumbent, stuporous, unresponsive): 16; Long-term NB effects following the infusion (healthy neonatal foal; observed hourly for 6 h, then at 12 h intervals for 2 days): No long-term NB effects were observed
